The values that follow come from patent US7345180B2, “Compound inhibiting dipeptidyl peptidase IV” (Sanwa Kagaku Kenkyusho Co., Ltd., priority 2003, dated 2008).

In general, IC50 refers to the concentration that gives 50% inhibition. A high value points to weaker potency in that assay.

In this assay the target is T1, DPP-IV (Homo sapiens, UniProt P27487).
T1 construct: from tissue; host or cells: human plasma (diluted 30-fold)
T1 sequence (P27487 39-766 limits assumed): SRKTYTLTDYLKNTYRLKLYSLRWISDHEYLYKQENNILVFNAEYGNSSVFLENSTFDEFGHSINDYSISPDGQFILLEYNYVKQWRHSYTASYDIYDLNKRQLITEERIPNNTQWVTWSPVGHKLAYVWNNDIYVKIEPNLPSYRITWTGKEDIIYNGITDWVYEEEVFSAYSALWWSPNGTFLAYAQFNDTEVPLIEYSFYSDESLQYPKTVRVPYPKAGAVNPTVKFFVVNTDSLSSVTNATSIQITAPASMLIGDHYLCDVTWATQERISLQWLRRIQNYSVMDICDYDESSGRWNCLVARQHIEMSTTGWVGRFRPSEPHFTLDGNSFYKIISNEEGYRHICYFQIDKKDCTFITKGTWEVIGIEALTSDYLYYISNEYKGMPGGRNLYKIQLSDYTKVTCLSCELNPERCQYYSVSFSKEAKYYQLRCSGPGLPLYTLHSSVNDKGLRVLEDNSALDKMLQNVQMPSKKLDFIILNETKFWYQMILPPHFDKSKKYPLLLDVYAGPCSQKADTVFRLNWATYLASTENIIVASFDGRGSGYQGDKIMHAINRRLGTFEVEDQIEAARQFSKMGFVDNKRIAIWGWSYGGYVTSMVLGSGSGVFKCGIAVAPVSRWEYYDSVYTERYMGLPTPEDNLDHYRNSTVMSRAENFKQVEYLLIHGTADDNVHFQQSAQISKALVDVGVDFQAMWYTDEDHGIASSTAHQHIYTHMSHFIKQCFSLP
Briefly: DPP-IV inhibition, Gly-Pro-MCA substrate, human plasma as enzyme source (Pharmacological Test Example 1). The assay is classed as biochemical. The conditions noted are these: 30 minutes at room temperature. How it is done: In screening of DPP-IV inhibitor, the following method using glycyl-proline-4-methylcumalyl-7-amide (Gly-Pro-MCA) as substrate was used.
There after, human plasma (20 μl) diluted30-fold with the measurement buffer was added to each well, stirred and reacted at room temperature for 30 minutes in the dark.
Inhibitory activity on DPP-IV=100×(1−(Fs−Fb)/F100−Fb) F100:fluorescence intensity obtained by reaction with plasma. Fb:fluorescence intensity of a blank where the reaction was carried out with the reaction terminating solution added. Fs:fluorescence intensity obtained by adding the test substance.
For `COc1cccc2c1cc(C(=O)NCC(C)(C)NCC(=O)N1CCC[C@H]1C#N)n2C` [Example 23], inhibition was half-maximal at 82 nM (IC50). Under `CC(C)(CNC(=O)c1cn(COCc2ccccc2)c2ccccc12)NCC(=O)N1CCC[C@H]1C#N` [Example 33] stands 71 nM; under `Cc1nn(C)c2ncc(C(=O)NCCNCC(=O)N3CCC[C@H]3C#N)cc12` [Compound 122], 26 nM. Turning to `Cc1cc2nc(O)c(C(=O)NCC(C)(C)NCC(=O)N3CCC[C@H]3C#N)cn2n1` [Example 11], half-maximal inhibition (IC50) was put at 68 nM. Under `CC(C)(CNC(=O)c1ccc2[nH]ccc2c1)NCC(=O)N1CCC[C@H]1C#N` [Example 16] stands 33 nM; under `COc1cc(OC)c2cc(C(=O)NCC(C)(C)NCC(=O)N3CCC[C@H]3C#N)n(C)c2c1` [Example 25], 48 nM; under `CC(C)(CNC(=O)c1c[nH]c2ccccc12)NCC(=O)N1CCC[C@H]1C#N` [Example 15], 28 nM. Take `Cn1ccc2c(C(=O)NCC(C)(C)NCC(=O)N3CCC[C@H]3C#N)cccc21` [Example 19]: the IC50 was 50 nM. For `CC(C)(CC(=O)N1Cc2c(Cl)ccc(Cl)c2C1)NCC(=O)N1CCC[C@H]1C#N` [Example 69], the IC50 was found to be 21 nM. `COc1cccc2c1CN(C(=O)CC(C)(C)NCC(=O)N1CCC[C@H]1C#N)C2` [Example 78] showed an IC50 of 15 nM.

In turn, `Cc1nc2ccc(C(=O)NCC(C)(C)NCC(=O)N3CCC[C@H]3C#N)cc2o1` [Example 57] registered a concentration for half-maximal inhibition (IC50) of 35 nM.

`COc1cc(C(=O)NCC(C)(C)NCC(=O)N2CCC[C@H]2C#N)cc2ccn(C)c12` [Example 28] registered an IC50 of 78 nM. Under `CC(C)Cn1cc(C(=O)NCC(C)(C)NCC(=O)N2CCC[C@H]2C#N)c2ccccc21` [Example 30] stands 89 nM; under `CC(C)(CNC(=O)C1Cc2ccccc2C1)NCC(=O)N1CCC[C@H]1C#N` [Example 59], 50 nM.

In turn, `COc1cc2ncsc2cc1C(=O)NCCNCC(=O)N1CCC[C@H]1C#N` [Example 102] returned an IC50 of 90 nM. As for `Cc1cc(O)c2c(c1)CN(C(=O)CC(C)(C)NCC(=O)N1CCC[C@H]1C#N)C2` [Example 75], the IC50 amounted to 14 nM. In the case of `COc1ccc2c(c1)c(C(=O)NCC(C)(C)NCC(=O)N1CCC[C@H]1C#N)c(C)n2C` [Example 26], inhibition was half-maximal at 33 nM (IC50). The molecule `COc1ccc2cc(C(=O)NCC(C)(C)NCC(=O)N3CCC[C@H]3C#N)n(C)c2c1` [Example 24] had an IC50 of 43 nM. For `CC(=O)n1cc(C(=O)NCC(C)(C)NCC(=O)N2CCC[C@H]2C#N)c2ccccc21` [Example 45], the IC50 turned out to be 28 nM. Regarding `CC(C)(CNC(=O)c1ccc2ncsc2c1)NCC(=O)N1CCC[C@H]1C#N` [Example 51], the IC50 was 26 nM. On to `CC(C)(CC(=O)N1Cc2ccc(F)cc2C1)NCC(=O)N1CCC[C@H]1C#N` [Example 63], for which half-maximal inhibition (IC50) required 18 nM.

`CC(C)(CC(=O)N1Cc2cccc(F)c2C1)NCC(=O)N1CCC[C@H]1C#N` [Example 67] yielded an IC50 of 7 nM. `COc1c(C(=O)NCC(C)(C)NCC(=O)N2CCC[C@H]2C#N)c(C)nc2cc(-c3ccccc3)nn12` [Example 10] displayed an IC50 of 85 nM. The figure for `CC(C)(CNC(=O)c1ccc2c(c1)CCN2C(=O)C(F)(F)F)NCC(=O)N1CCC[C@H]1C#N` [Example 50] is 20 nM; for `N#C[C@@H]1CCCN1C(=O)CNCCC(=O)N1CCc2ccccc21` [Example 91] it is 82 nM. On to `COCn1ccc2cc(C(=O)NCC(C)(C)NCC(=O)N3CCC[C@H]3C#N)ccc21` [Example 38], for which the midpoint of inhibition, the IC50, lay at 25 nM. The figure for `CC(C)(CNC(=O)c1cn(COC(=O)C(C)(C)C)c2ccccc12)NCC(=O)N1CCC[C@H]1C#N` [Example 42] is 27 nM; for `CC(C)(CC(=O)N1Cc2ccc(CO)cc2C1)NCC(=O)N1CCC[C@H]1C#N` [Example 71] it is 2 nM.

Regarding `CC(C)(C)Cn1ccc2cc(C(=O)NCC(C)(C)NCC(=O)N3CCC[C@H]3C#N)ccc21` [Example 31], the IC50 was 49 nM. Regarding `N#C[C@@H]1CCCN1C(=O)CNCCNC(=O)c1ccc2ncsc2c1` [Example 95], the IC50 was determined as 13 nM. Under `Cn1cnc2cc(C(=O)NCC(C)(C)NCC(=O)N3CCC[C@H]3C#N)ccc21` [Example 56] stands 30 nM. Under `CC(C)(C)Cn1cc(C(=O)NCC(C)(C)NCC(=O)N2CCC[C@H]2C#N)c2cc(O)ccc21` [Example 41] stands 25 nM; under `CC(C)(CC(=O)N1Cc2cccc(O)c2C1)NCC(=O)N1CCC[C@H]1C#N` [Example 70], 32 nM; under `CC(C)(CNC(=O)c1ccc2c(ccn2COCc2ccccc2)c1)NCC(=O)N1CCC[C@H]1C#N` [Example 36], 45 nM. The figure for `CC(=O)N1CCc2cc(C(=O)NCC(C)(C)NCC(=O)N3CCC[C@H]3C#N)ccc21` [Example 46] is 19 nM; for `CC(C)(CNC(=O)c1ccc2c(ccn2CO)c1)NCC(=O)N1CCC[C@H]1C#N` [Example 37] it is 17 nM. `N#C[C@@H]1CCCN1C(=O)CNCCCCNC(=O)c1ccc2ncsc2c1` [Example 105] showed an IC50 of 31 nM. Molecule `Cc1nc2ccc(C(=O)NCCNCC(=O)N3CCC[C@H]3C#N)cc2s1` [Example 101] yielded a concentration for half-maximal inhibition (IC50) of 66 nM. The molecule `Cn1ccc2ccc(C(=O)NCC(C)(C)NCC(=O)N3CCC[C@H]3C#N)cc21` [Example 21] returned an IC50 of 28 nM. Turning to `Cn1ccc2cc(C(=O)NCC(C)(C)NCC(=O)N3CCC[C@H]3C#N)ccc21` [Example 20], the IC50 came out at 52 nM. Molecule `COc1ccc2c(c1)c(C(=O)NCC(C)(C)NCC(=O)N1CCC[C@H]1C#N)cn2CC(C)(C)C` [Example 39] yielded an IC50 of 73 nM. The figure for `CN1CCc2cc(C(=O)NCC(C)(C)NCC(=O)N3CCC[C@H]3C#N)ccc21` [Example 44] is 37 nM; for `CC(C)(CC(=O)N1Cc2ccc(Cl)cc2C1)NCC(=O)N1CCC[C@H]1C#N` [Example 65] it is 11 nM; for `Cn1cc(C(=O)NCC(C)(C)NCC(=O)N2CCC[C@H]2C#N)c2ccccc21` [Example 18] it is 36 nM. Under `N#C[C@@H]1CCCN1C(=O)CNCCNC(=O)c1cnc2n(c1=O)CCS2` [Compound 126] stands 31 nM; under `CC(C)(CNC(=O)c1ccc2c(ccn2CC(=O)OC(C)(C)C)c1)NCC(=O)N1CCC[C@H]1C#N` [Example 43], 16 nM.

With `CC(C)(CNC(=O)c1ccc2c(ccn2C(=O)C(C)(C)C)c1)NCC(=O)N1CCC[C@H]1C#N` [Example 49], it took 20 nM to reach half-maximal inhibition (IC50). Under `Cc1cccc2c1CN(C(=O)CC(C)(C)NCC(=O)N1CCC[C@H]1C#N)C2` [Example 68] stands 16 nM; under `CC(C)(CNC(=O)c1ccc2c(ccn2C(=O)c2ccccc2)c1)NCC(=O)N1CCC[C@H]1C#N` [Example 48], 31 nM. `COc1ccc2c(c1)c(C(=O)NCC(C)(C)NCC(=O)N1CCC[C@H]1C#N)cn2C` [Example 27] returned an IC50 of 21 nM. Consider `CC(C)(CC(=O)N1Cc2ccc(C(F)(F)F)cc2C1)NCC(=O)N1CCC[C@H]1C#N` [Example 72], for which 39 nM corresponded to half-maximal inhibition (IC50).

`CC(C)(CNC(=O)c1cnc2cc(CO)nn2c1)NCC(=O)N1CCC[C@H]1C#N` [Example 13] had an IC50 of 24 nM. `CC(C)(CCC(=O)N1Cc2ccccc2C1)NCC(=O)N1CCC[C@H]1C#N` [Example 82]: the IC50 stood at 17 nM. Under `COc1cc(C)cc2c1CN(C(=O)CC(C)(C)NCC(=O)N1CCC[C@H]1C#N)C2` [Example 76] stands 22 nM. The figure for `Cn1ccc2cccc(C(=O)NCC(C)(C)NCC(=O)N3CCC[C@H]3C#N)c21` [Example 22] is 73 nM.

In turn, `CC(C)(CNC(=O)c1ccc2[nH]c(=O)sc2c1)NCC(=O)N1CCC[C@H]1C#N` [Example 55] showed an IC50 of 24 nM. `COCn1cc(C(=O)NCC(C)(C)NCC(=O)N2CCC[C@H]2C#N)c2ccccc21` [Example 34] yielded an IC50 of 23 nM. Under `CC(C)(CC(=O)N1Cc2ccc(C(C)(C)C)cc2C1)NCC(=O)N1CCC[C@H]1C#N` [Example 66] stands 50 nM; under `CC(=O)OCn1cc(C(=O)NCC(C)(C)NCC(=O)N2CCC[C@H]2C#N)c2ccccc21` [Example 35], 37 nM.

On to `CC(C)Cn1ccc2cc(C(=O)NCC(C)(C)NCC(=O)N3CCC[C@H]3C#N)ccc21` [Example 32], for which half-maximal inhibition (IC50) was put at 48 nM. `N#C[C@@H]1CCCN1C(=O)CNCCC(=O)N1Cc2ccccc2C1` [Example 89] returned an IC50 of 25 nM.

The molecule `CC(C)(CC(=O)N1Cc2c(Cl)c(Cl)c(Cl)c(Cl)c2C1)NCC(=O)N1CCC[C@H]1C#N` [Example 73] displayed an IC50 of 94 nM. In the case of `CC(=O)n1ccc2cc(C(=O)NCC(C)(C)NCC(=O)N3CCC[C@H]3C#N)ccc21` [Example 47], the IC50 turned out to be 24 nM.

`COc1c(C(=O)NCC(C)(C)NCC(=O)N2CCC[C@H]2C#N)c(C)nc2cc(C)nn12` [Example 4] displayed an IC50 of 87 nM. The figure for `N#C[C@@H]1CCCN1C(=O)CNCCC(=O)Nc1nc2ccccc2s1` [Example 93] is 62 nM; for `CC(C)(CC(=O)N1Cc2ccc(Br)cc2C1)NCC(=O)N1CCC[C@H]1C#N` [Example 64] it is 24 nM. `COc1cc(C(=O)NCC(C)(C)NCC(=O)N2CCC[C@H]2C#N)cc2sc(C(F)(F)F)nc12` [Example 53] came in with a 50% inhibitory concentration (IC50) of 48 nM. Regarding `CC(C)(CC(=O)N1Cc2cc(Cl)c(Cl)cc2C1)NCC(=O)N1CCC[C@H]1C#N` [Example 74], half-maximal inhibition (IC50) required 44 nM.
